Structures can show the parent of a compound that is named as a salt.
melting point: 138 to 177 °C
SMILES: COc1cc(C2=CCCCC2)c(Cl)cc1C(=O)N1Cc2ccc(C(=O)N(C)Cc3cccnc3)n2Cc2ccccc21 (as salt: tartaric acid salt) (hydrate or solvate) [Example 2, 10-(5-Chloro-4-cyclohex-1-en-1-yl-2-methoxybenzoyl)-N-methyl-N-(pyridin-3-ylmethyl)-10,11-dihydro-5H-pyrrolo[2,1-c][1,4]benzodiazepine-3-carboxamide L-(+)-tartaric acid salt hemihydrate]
